Measurements taken from US11091490B2, “3-amino-1,5-dihydro-pyrazolo[3,4-d]pyrimidin-4-ones as cyclin dependent kinase inhibitors” (Oncotyrol Center for Personalized Cancer Medicine GMBH, priority 2016, dated 2021).
Where two headings read alike, the source gives them in different places.

Assays:
[1] = system: HeLa cervix carcinoma cells; test: PARP cleavage Western blot HeLa; assay type: cell-based; conditions: 24 h, 100 nM, FIG. 1B legend 0.08 μM
Excerpt: (§1) In order to investigate the mode of action (MOA) related to the antitumor activity of the compounds of the present invention (in particular compound 86) in solid tumors and multiple myeloma, two experimental strategies were used to confirm the postulated MOA: 1) monitoring of apoptosis induction and 2) cell cycle analysis upon treatment with compound 86. Three cancer cell lines (LP-1, (multiple myeloma cells, DSMZ ACC 41), A375 (melanoma cells), and HeLa (cervix carcinoma cells)) as well as control cells (HS-5 bone marrow stroma cells, ATCC CRL-11882) were used to obtain mechanistic insight into the antitumor activity of compound 86.
(§2) Annexin V staining and Poly(ADP-ribose)-Polymerase 1 (PARP) protein cleavage was analyzed to identify a pro-apoptotic effect of compound 86 on tumor cells in accordance with the method of Koopman G, et. al. Blood 1994; 1; 84(5):1415-20. Annexin V allows the identification of cell surface changes that occur early during the apoptotic process by in situ detection, which is ideal for the analysis with adherent cells. Cleavage of PARP-1 by caspases is considered to be a hallmark of apoptosis and was therefore applied to monitor apoptosis induction after 24 h of treatment with 100 nM of compound 86.

[2] = system: NCI-H929/GN2; test: Multiple myeloma cells in mono- and co-culture with osteoblasts, imaging based detection (NCI-H929); assay type: cell-based
Method: Compound 86 has been compared with the key compound of WO 2000/21926 A2 (Example 121) in an imaging based detection system.
Two different multiple myeloma (MM) cell lines (RPMI-8226 (DSMZ, ACC 402), NCI-H929 DSMZ, ACC 163) have been used and were cultured in mono- and co-culture with osteoblasts (OB) (Osteoblasts were obtained by culturing hMSCs with a differentiation inducing medium for two weeks) in accordance with the method of Karadag A. et al. Journal of Bone and Mineral Research Vol. 15, No. 10, 2000 page 1935-43.

[3] = system: COLO205 (colon); test: In vitro proliferation screening (Sulforhodamin B) COLO205; assay type: cell-based, human; conditions: COLO205, 72 h, unit M
Excerpt: (§3) In order to evaluate the antitumor activity of the compounds of the present invention, in particular compound 86, in solid tumors, an in vitro proliferation screening in a panel of 10 different human cancer cell lines derived from solid tumors (see Table 5, below) as a model system.
(§4) Six 10-fold dilutions of compound 86 have been prepared in DMSO, from 5×10^−9 M to 5×10^−4. Single data points have been tested for each concentration. The final concentration of DMSO was 0.1%. The duration of the treatment was 72 hours. The growth inhibition was measured by using Sulforhodamin B, a protein-staining assay in accordance with Vichai V et. al. Nat. Protoc. 2006; 1(3):1112-6. Activity of the agents was determined by evaluating the following parameters: IC50, GI50, IC10, GI10, TGI, LC50, IC90 and GI90 (if these values could be calculated).

[4] = target: human ether-a-go-go-related gene (hERG)-encoded K+ channel (Homo sapiens, UniProt Q12809); test: Medium-throughput electrophysiology based hERG assay; assay type: cell-based
human ether-a-go-go-related gene (hERG)-encoded K+ channel, sequence (Q12809 whole entry): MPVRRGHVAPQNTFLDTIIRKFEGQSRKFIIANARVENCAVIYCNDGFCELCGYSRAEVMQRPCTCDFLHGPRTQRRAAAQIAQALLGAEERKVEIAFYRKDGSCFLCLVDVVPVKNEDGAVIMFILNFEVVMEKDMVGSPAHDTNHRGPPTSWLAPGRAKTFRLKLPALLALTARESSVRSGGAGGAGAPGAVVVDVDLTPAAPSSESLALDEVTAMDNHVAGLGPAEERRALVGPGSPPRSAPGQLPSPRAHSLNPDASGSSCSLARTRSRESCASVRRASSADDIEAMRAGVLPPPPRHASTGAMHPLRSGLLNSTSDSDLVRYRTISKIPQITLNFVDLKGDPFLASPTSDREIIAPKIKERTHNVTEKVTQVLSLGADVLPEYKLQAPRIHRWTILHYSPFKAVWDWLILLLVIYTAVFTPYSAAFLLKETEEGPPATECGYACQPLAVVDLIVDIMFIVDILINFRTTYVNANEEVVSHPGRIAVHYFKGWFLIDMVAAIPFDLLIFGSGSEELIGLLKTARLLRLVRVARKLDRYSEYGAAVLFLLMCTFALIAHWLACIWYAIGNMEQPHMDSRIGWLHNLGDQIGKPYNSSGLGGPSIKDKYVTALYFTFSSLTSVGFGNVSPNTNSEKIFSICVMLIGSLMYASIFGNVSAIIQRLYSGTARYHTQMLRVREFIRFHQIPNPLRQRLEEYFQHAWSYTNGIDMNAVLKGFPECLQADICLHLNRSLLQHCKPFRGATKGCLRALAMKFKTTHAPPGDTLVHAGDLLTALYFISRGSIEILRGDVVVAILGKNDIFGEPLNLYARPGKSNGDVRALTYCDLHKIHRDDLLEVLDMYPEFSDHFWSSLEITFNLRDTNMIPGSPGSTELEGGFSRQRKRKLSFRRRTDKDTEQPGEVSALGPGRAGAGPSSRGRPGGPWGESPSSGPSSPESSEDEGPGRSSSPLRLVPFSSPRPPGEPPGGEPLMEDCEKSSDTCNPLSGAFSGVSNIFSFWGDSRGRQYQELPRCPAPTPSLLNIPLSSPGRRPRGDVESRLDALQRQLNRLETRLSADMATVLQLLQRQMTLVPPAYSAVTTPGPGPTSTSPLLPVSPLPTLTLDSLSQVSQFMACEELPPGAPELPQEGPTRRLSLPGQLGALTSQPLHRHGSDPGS
Excerpt: In a medium-throughput electrophysiology based hERG assay carried out in accordance with Bridgland-Taylor M H et al., J Pharmacol Toxicol Methods. 2006 September-October; 54(2):189-99. Epub 2006 Mar. 6.

[5] = system: BXPC3 (pancreas); test: In vitro proliferation screening (Sulforhodamin B) BXPC3; assay type: cell-based, human; conditions: BXPC3, 72 h
Excerpt: as §3, §4

[6] = Pharmacokinetic studies; conditions: in vivo
Excerpt: Pharmacokinetic studies on the compounds of the present invention have been carried out in accordance with Endele R and Senn M., Int. J. Mass Spectrom. Ion Phys. 1983 January; 48:81-84. doi:10.1016/0020-7381(83)87033-8.

[7] = system: HeLa cervix carcinoma cells; test: Cell cycle analysis (propidium iodide FACS) HeLa; assay type: cell-based
Excerpt: as §1
(§5) Measuring of DNA content in cells is a well-established method for monitoring cell proliferation, cell cycle, fragmentation of nuclei (apoptosis) and DNA ploidy. Proliferating cells progress through various phases of the cell cycle (G0, G1, S, G2, and M phase). At different stages of the cell cycle and life cycle, cell nuclei contain different amounts of DNA. The DNA content in cell nuclei was analyzed by propidium iodide (PI) staining and FACS analysis after 12 and 24 h of treatment with 100 nM of compound 86 in accordance with the method of Desai Brijal M. et. al. PLOS Vol. 8; Issue 3; p. 1-11, 2013.

[8] = system: HS-5 bone marrow stroma cells (control); test: Cell cycle analysis (propidium iodide FACS) HS-5; assay type: cell-based; conditions: HS-5 control cells, 100 nM, 12 and 24 h
Excerpt: as §1, §5

[9] = system: NCIH82 (lung); test: In vitro proliferation screening (Sulforhodamin B) NCIH82; assay type: cell-based; conditions: Homo sapiens, NCI-H82; NCIH82, 72 h; unit M
Excerpt: as §3, §4

[10] = system: PBMC control cells; test: In vitro proliferation screening (Sulforhodamin B) PBMC control cells; assay type: cell-based; conditions: 72 h
Method: as §4

[11] = system: HeLa cervix carcinoma cells; test: Annexin V/PI staining HeLa; assay type: cell-based; conditions: 0.1 μM, 12 h and 24 h
Excerpt: as §1, §2

[12] = system: HS-5 bone marrow stroma cells (control); test: Annexin V/PI staining HS-5; assay type: cell-based; conditions: HS-5 control cells, 0.1 μM, 12 h and 24 h
Excerpt: as §1, §2

[13] = system: UO31 (kidney); test: In vitro proliferation screening (Sulforhodamin B) UO31; assay type: cell-based, human; conditions: UO31, 72 h
Excerpt: as §3, §4

[14] = system: U2OS (bone); test: In vitro proliferation screening (Sulforhodamin B) U2OS; assay type: cell-based, human; conditions: 72 h
Excerpt: as §3, §4

[15] = system: SKNAS (brain); test: In vitro proliferation screening (Sulforhodamin B) SKNAS; assay type: cell-based; conditions: Homo sapiens, SK-N-AS, 72 h, unit M
Excerpt: as §3, §4

CCN(CC)CC(=O)Nc1ccc(Cc2nc3c(c(N(C)C)nn3-c3c(Cl)cc(S(N)(=O)=O)cc3Cl)c(=O)[nH]2)cc1 [Compound 86, N-{4-[1-(2,6-Dichloro-4-sulfamoyl-phenyl)-3-dimethylamino-4-oxo-4,5-dihydro-1H-pyrazolo[3,4-d]pyrimidin-6-ylmethyl]-phenyl}-2-diethylamino-acetamide]
PARP cleavage [1]: specific induction of PARP cleavage | PARP cleavage ([1]; listed as Otviciclib): induction of PARP cleavage | EC50 ([2]; Homo sapiens, NCI-H929, NCI-H929/GN2, co-culture with osteoblasts, read-out: co-culture (+ OB) EC50): 72 nM | EC50 ([2]; Homo sapiens, NCI-H929, NCI-H929/GN2, mono-culture, read-out: mono-culture EC50): 62 nM | EC50 ([2]; NCI-H929/GN2, co-culture with osteoblasts, read-out: co-culture (+ OB) EC50): 68 nM | EC50 ([2]; NCI-H929/GN2, mono-culture, read-out: mono-culture EC50): 55 nM | GI50 [3]: 20.9 nM | GI50 ([3]; Homo sapiens, COLO 205, 72 h): 21 nM | IC50 ([3]; Homo sapiens, COLO 205): 24.2 nM | inhibitory activity on hERG K+ channel [4]: did not display any inhibitory activity | growth inhibitory response in words [5]: growth inhibition in the middle nanomolar range | GI50 ([5]; Homo sapiens, BXPC-3, unit M): 36.3 nM | IC50 ([5]; Homo sapiens, BXPC-3, unit M): 41.8 nM | oral bioavailability [6]: display oral bioavailability | cell cycle profile (DNA content) ([7]; 0.1 μM, 12 and 24 h (FIG. 1A)): cell cycle defects and a progressive enrichment of the sub G1 group | cell cycle profile (DNA content) ([7]; 100 nM, 12 h): unaffected | cell cycle profile (DNA content) ([7]; 100 nM, 24 h): clear response | cell cycle profile (DNA content) [8]: remained unchanged | GI50 [9]: 16.5 nM | IC50 [9]: 21.3 nM | response to treatment (growth inhibition) [10]: resistant | induction of apoptosis (Annexin V/PI staining) [11]: specific induction of apoptosis | induction of apoptosis (Annexin V/PI staining) ([11]; listed as Otviciclib): reproducible induction of apoptosis | induction of apoptosis (Annexin V/PI staining) [12]: did not respond | GI50 ([13]; Homo sapiens, UO-31, unit M): 339 nM | IC50 ([13]; Homo sapiens, UO-31, unit M): 360 nM | growth inhibitory response in words [13]: responded rather weakly in the micromolar range | growth inhibitory response in words [14]: responded rather weakly in the micromolar range | GI50 ([14]; Homo sapiens, unit M): 94.2 nM | IC50 ([14]; Homo sapiens, unit M): 103 nM | GI50 [15]: 41.2 nM | IC50 [15]: 74.3 nM
